# Results reported in patent publication US20120177601A1, “TREATMENT OF HEPATITIS C VIRUS INFECTIONS” (THE USA AS REPRESENTED BY THE SECRETARY OF THE DEPARTMENT …, priority 2009, published 2012).
# Counter-ions that a name gives are not always drawn.
# Tests used:
# [1] = biological target: T1, endogenous NS3/4A protease from replicons (Hepatitis C virus genotype 1b, UniProt Q9WMX2); test: Endogenous NS3/4A protease assay with replicon lysates (FRET); assay type: biochemical, HCV; details: protease freshly prepared from replicons
# T1 construct: For assays employing endogenous NS3/4A protease; expressed in transfected cells; host or cells: HCV replicon cells (Huh5-15 sub-genomic or Huh7.5FL Con1), Triton X-100 lysate
# Procedure: For assays employing endogenous NS3/4A protease, the high-throughput FRET assay was used with modifications (Yu et al., 20009). Replicon cells at 90% confluence were lysed in ice-cold 1.25% Triton X-100 lysis buffer (Yu et al., 20009). Serial dilutions of lysates were added in triplicate to black 96-well plates, together with designated concentrations of tetrapyrrole. The HiLyte Flur™ TR/QXL™ 610 substrate solution (AnaSpec) was prepared according to the manufacturer's instructions. The plate and substrate were incubated at 37° C. for 15 min, and then 50 μl substrate solution was added to each well. The plates were incubated at room temperature for 30 min, avoiding direct light. The fluorescence intensity was then measured as above for recombinant enzyme assays using FLUOstar Optima (BMG Lab Tech, Cary, N.C.). To ensure specificity for the NS3/4A protease, lysates of parental Huh7 and Huh7.5 cells were run in every assay and the results subtracted as background fluorescence.
# [2] = test system: NS5A and core protein in NS and FL replicons; test: Western blot / immunoprecipitation of HCV proteins in replicons; assay type: cell-based
# Procedure: Western blot analysis. Western blots (WB) were performed as previously described using enhanced chemiluminescence for signal detection (ECLTM, Amersham) (Abdalla et al., 2005). Signal intensities were quantified using Image J software (NIH).
# Immunoprecipitation of NS5A. Log-phase replicons were treated with various concentrations of BV for 48 hr, washed, lysed in cell lysis buffer (Cell Signaling Technology, Beverly, Mass.) and clarified by cold centrifugation (14,000×g for 10 min). An aliquot of supernatant containing 100 μg protein was incubated with 1 μg of HCV NS5A monoclonal antibody (Meridian Life Science, Saco, Me.) and 20 μl of rProtein G Agarose (Invitrogen, CA) overnight at 4° C. The agarose was collected by 3000×g spin, washed three times with ice-cold PBS, then dissolved in 40 μL 2× Laemmli sample buffer (Bio-Rad, CA) and assayed by WB.
# [3] = test system: Huh5-15NS replicon (sub-genomic HCV RNA); test: HCV replication in nonstructural (NS) replicon cells, real-time RT-PCR (ΔCT); assay type: cell-based; details: NS replicon, 48 hr
# Description: Cell lines and cell culture. The human hepatoma cell line (Huh5-15) with replicating sub-genomic HCV RNA (Lohmann et al., 1999) was a kind gift of Dr. Volker Lohmann (Institute for Virology, Johannes-Gutenberg University, Mainz, Germany), and cultivated as described (Zhu et al., 2008). Huh7.5 cells harboring full length (Huh7.5FL) Conl replicons (Blight et al., 2002) were a kind gift of Dr. Charles Rice (Rockefeller University, New York, N.Y.). These cells were passed as recommended by their laboratory of origin (Blight et al., 2002). An infectious clone of HCV, J6/JFH, was inoculated into Huh7.5 cells and the cultures passed as previously described (Lindenbach et al., 2005). Cells were incubated with BV, BR, or FeCl2 for 24-48 h in DMEM containing 5% FBS.
# Quantitative Real-time RT-PCR. Total RNA was extracted from cells using Trizol reagent (Invitrogen, Carlsbad, Calif.), treated with Turbo RNase free DNase (Ambion, TX), and processed as described (Zhu et al., 2008). To assess replication, the primers and probe designed by Takeuchi et al. (1999) targeting sequences located in 5′UTR (nt130-290) were employed as described for each replicon line (Blight et al., 2002; Lohmann et al., 2003). Real-time RT-PCR was performed using Taq DNA polymerase with the TaqMan Universal PCR Master Mix Protocol (Perkin Elmer Applied Biosystems, Foster City, Calif.). Quantitation was performed using the comparative cycle threshold (ΔCT) method as described previously (Abdalla et al., 2004).
# T1 sequence (Q9WMX2 1658-1711): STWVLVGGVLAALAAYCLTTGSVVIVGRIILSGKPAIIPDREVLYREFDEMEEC
# T1 sequence (Q9WMX2 1027-1657): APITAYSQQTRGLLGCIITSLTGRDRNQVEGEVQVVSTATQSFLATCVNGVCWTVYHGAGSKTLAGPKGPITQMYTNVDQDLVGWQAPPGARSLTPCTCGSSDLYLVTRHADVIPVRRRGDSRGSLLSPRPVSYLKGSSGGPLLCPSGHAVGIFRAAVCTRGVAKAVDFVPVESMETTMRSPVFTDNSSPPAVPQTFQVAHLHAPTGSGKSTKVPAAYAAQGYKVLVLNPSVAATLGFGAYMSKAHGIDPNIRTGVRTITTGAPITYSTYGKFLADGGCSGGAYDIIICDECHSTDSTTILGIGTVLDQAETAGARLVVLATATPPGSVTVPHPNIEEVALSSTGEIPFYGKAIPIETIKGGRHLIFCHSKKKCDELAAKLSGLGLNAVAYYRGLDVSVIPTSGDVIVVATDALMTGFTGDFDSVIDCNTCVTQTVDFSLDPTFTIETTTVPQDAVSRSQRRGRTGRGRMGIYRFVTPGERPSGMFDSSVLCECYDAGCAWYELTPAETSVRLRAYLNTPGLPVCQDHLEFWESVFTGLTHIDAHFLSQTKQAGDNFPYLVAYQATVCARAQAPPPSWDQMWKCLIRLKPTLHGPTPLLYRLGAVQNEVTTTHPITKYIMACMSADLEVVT
smiles,measurement,setting,value
"C=CC1=C(C)/C(=C/C2=NC(=C\c3[nH]c(/C=C4\NC(=O)C(C)=C4C=C)c(C)c3CCC(=O)O)/C(CCC(=O)O)=C2C)NC1=O [Biliverdin, biliverdin-IX-α hydrochloride]",inhibition of endogenous protease compared with recombinant enzyme,[1],slightly higher concentrations
same,NS5A protein level (WB),"[2]; both replicon lines, 24 hr, BV 20 μM, BR 200 μM, FeCl2 100 mM as printed",decreased NS5A
same,core protein level (WB),"[2]; full-length replicons, 24 hr, BV 20 μM, BR 200 μM, FeCl2 100 mM as printed",reduced
same,"NS5A by WB or immunoprecipitation, concentration series","[2]; full-length replicons, various concentrations of BV",dose-dependently decreased NS5A
same,concentration showing significant antiviral activity / required to suppress HCV replication,[3],20 µM
